What was measured:
[1] = biological target: T1, PI3Kα (p110α/p85α) (Homo sapiens, UniProt P42336); assay: PI3Kα ADP-Glo assay; type: biochemical; conditions: 20 μM PIP2, 10 μM ATP, 30 minutes
T1 construct: GST (N); made in house; host or cells: Baculovirus-infected Sf9 cells
Summary of the method: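 Recombinant full-length human GST-p110α/His-p85α, co-expressed in Sf9 cells, was incubated 30 min at room temperature with 20 μM PIP2 and 10 μM ATP. The buffer was 50 mM HEPES pH 7.4, 150 mM NaCl, 5 mM MgCl2, 1 mM DTT, 3 µM orthovanadate and 0.5% DMSO. ADP formed was detected by ADP-Glo luminescence.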

[2] = biological target: T2, mTor serine/threonine protein kinase (Homo sapiens, UniProt P42345); assay: mTor kinase radioisotope assay; type: biochemical; conditions: 70 uM ATP, 40 minutes; read-out: m-TOR IC50
T2 construct: FLAG; made in house; host or cells: Baculovirus expression system in Sf21 cells
Protocol: (F) an In Vitro Assay which-Determines the Ability of a Test Compound to Inhibit mTor Serine/Threonine Protein Kinase.
The ability of compounds to inhibit mTor activity was assayed using standard radioisotope assay for kinase. Briefly, FLAG-tagged, recombinant full-length human mTor (GenBank accession No. NM_004958) was expressed using baculovirus expression system in Sf21 cells and purified using antibody affinity column. Purified enzyme was incubated with c-terminal fragment of p70S6K as it's substrate in the presence of ATP. p33 ATP tracers were included in the assay to monitor the enzyme activity. Final assay condition was with 50 mM HEPES pH 7.5, 1 mM EGTA, 0.01% Tween 20, 2 mg/ml substrate, 3 mM Manganese Chloride and 70 uM of ATP and was carried out at room temperature for 40 minutes. The reaction was then stopped by the addition of 3% phosphoric acid solution. 10 ul of the reaction was spotted onto a P30 filtermat and washed three times for 5 minutes in 75 mM phosphoric acid and once in methanol prior to drying and scintillation counting. Different concentrations of compounds were added to reaction to assess the activity of compounds to inhibit mTor kinase. IC50 was calculated using Prism software with sigmoidal dose-response curve fitting.

[3] = system: HDACs (HeLa cell nuclear extracts); assay: HDAC enzymatic activity, Biomol Color de Lys system; type: biochemical; conditions: 1 hour, 25° C.
Summary of the method: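 HeLa nuclear extract incubated with serially diluted compound and […] artificial substrate in 50 mM Tris/Cl pH 8.0, 137 mM NaCl, 2.7 mM KCl, 1 mM MgCl2. Run 1 h at 25 °C, stopped with developer. Fluorescence read (ex 350-380, em 440-460 nm); IC50 from sigmoidal dose-response fit.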

T1 sequence (P42336 whole entry): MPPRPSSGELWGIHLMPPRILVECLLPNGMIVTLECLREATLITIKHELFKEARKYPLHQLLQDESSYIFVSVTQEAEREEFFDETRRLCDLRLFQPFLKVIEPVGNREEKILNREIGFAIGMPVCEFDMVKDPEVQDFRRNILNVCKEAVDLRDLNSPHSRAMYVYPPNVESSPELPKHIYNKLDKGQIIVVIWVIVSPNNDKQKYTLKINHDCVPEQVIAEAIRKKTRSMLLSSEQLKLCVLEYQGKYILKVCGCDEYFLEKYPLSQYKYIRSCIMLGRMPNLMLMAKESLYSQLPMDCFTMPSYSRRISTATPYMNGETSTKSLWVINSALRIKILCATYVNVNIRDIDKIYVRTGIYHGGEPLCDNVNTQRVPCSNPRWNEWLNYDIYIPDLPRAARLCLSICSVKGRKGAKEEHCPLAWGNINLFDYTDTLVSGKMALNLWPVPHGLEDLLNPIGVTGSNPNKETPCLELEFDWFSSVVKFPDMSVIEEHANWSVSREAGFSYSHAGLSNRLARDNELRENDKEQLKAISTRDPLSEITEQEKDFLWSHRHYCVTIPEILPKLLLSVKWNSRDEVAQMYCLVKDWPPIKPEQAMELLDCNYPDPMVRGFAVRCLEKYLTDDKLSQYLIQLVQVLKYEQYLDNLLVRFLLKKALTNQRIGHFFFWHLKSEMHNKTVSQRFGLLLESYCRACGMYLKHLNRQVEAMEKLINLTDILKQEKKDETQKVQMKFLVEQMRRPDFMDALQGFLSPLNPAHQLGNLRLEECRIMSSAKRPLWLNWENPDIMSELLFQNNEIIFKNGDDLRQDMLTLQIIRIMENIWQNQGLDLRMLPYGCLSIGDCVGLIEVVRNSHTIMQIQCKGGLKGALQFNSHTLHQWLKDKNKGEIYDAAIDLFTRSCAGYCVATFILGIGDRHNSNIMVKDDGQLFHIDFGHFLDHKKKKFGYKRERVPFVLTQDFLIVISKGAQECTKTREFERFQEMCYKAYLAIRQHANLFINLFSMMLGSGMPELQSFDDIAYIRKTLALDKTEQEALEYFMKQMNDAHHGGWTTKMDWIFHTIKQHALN
T1 sequence (P27986 whole entry partner): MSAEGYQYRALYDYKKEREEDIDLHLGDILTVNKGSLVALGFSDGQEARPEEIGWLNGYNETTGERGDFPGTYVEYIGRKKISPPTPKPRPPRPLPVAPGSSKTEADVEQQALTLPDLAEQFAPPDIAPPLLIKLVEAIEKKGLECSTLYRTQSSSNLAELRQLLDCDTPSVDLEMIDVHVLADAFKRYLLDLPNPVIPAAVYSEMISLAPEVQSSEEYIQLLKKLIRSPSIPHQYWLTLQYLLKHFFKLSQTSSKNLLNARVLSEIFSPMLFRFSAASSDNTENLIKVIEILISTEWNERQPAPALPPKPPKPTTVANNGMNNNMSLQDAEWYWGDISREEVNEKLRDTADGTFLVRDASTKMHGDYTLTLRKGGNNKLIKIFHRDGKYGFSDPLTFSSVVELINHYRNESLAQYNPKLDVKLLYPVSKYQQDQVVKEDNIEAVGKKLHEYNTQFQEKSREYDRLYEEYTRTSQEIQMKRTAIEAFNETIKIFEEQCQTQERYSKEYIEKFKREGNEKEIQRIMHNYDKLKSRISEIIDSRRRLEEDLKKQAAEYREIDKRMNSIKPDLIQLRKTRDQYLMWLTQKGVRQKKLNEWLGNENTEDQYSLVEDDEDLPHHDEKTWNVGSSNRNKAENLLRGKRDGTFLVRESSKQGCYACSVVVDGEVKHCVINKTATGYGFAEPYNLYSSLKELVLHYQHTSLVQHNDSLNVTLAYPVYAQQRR

| SMILES | IC50 [1] | IC50 [2] | IC50 [3] | melting point |
| --- | --- | --- | --- | --- |
| COc1ccc(-c2nc(N3CCOCC3)c3sc(CN(CCO)c4ncc(C(=O)NO)cn4)cc3n2)cn1 [Compound 265] | < 100 nM | > 10000 nM | < 100 nM |  |
| CN(CCCCC(=O)NO)Cc1cc2nc(-c3cccc4[nH]ncc34)nc(N3CCOCC3)c2s1 [Compound 102, 5-(((2-(1H-indazol-4-yl)-4-morpholinothieno[3,2-d]pyrimidin-6-yl)methyl)(methyl)amino)-N-hydroxypentanamide] | 100 to 1000 nM | 100 to 1000 nM | 100 to 1000 nM | 120 to 122 °C |
| COC(=O)CN(Cc1cc2nc(-c3cccc4[nH]ncc34)nc(N3CCOCC3)c2s1)c1ncc(C(=O)NO)cn1 [Compound 89] | < 100 nM | 1000 to 10000 nM | < 100 nM |  |
| N#CCCN(Cc1cc2nc(-c3cccc4[nH]ncc34)nc(N3CCOCC3)c2s1)c1ncc(C(=O)NO)cn1 [Compound 99] | < 100 nM | 100 to 1000 nM | < 100 nM |  |
| CN(Cc1cc2nc(-c3cccc4[nH]ncc34)nc(N3CCOCC3)c2s1)CC1CCN(c2ncc(C(=O)NO)cn2)CC1 [Compound 16, 2-(4-((((2-(1H-indazol-4-yl)-4-morpholinothieno[3,2-d]pyrimidin-6-yl)methyl)(methyl)amino)methyl)piperidin-1-yl)-N-hydroxypyrimidine-5-carboxamide] | < 100 nM | 1000 to 10000 nM | 100 to 1000 nM | 174 to 175 °C |
| CN(CCCC(=O)NO)Cc1cc2nc(-c3cccc4[nH]ncc34)nc(N3CCOCC3)c2s1 [Compound 101, 4-(((2-(1H-indazol-4-yl)-4-morpholinothieno[3,2-d]pyrimidin-6-yl)methyl)(methyl)amino)-N-hydroxybutanamide] | 100 to 1000 nM | 100 to 1000 nM | > 10000 nM | 115 to 118 °C |
| O=C(CCCCCNCc1cc2nc(-c3cccc4[nH]ncc34)nc(N3CCOCC3)c2s1)NO [Compound 43, 6-((2-(1H-indazol-4-yl)-4-morpholinothieno[3,2-d]pyrimidin-6-yl)methylamino)-N-hydroxyhexanamide] | 1000 to 10000 nM | 1000 to 10000 nM | < 100 nM | 128 to 130 °C |
| Nc1ccc(-c2nc(N3CCOCC3)c3sc(CN(CCO)c4ncc(C(=O)NO)cn4)cc3n2)cc1 [Compound 274] | < 100 nM | 100 to 1000 nM | < 100 nM |  |
| O=C(NO)c1cnc(N2CCC(CNCc3cc4nc(-c5cccc6[nH]ncc56)nc(N5CCOCC5)c4s3)CC2)nc1 [Compound 15, 2-(4-(((2-(1H-indazol-4-yl)-4-morpholinothieno[3,2-d]pyrimidin-6-yl)methylamino)methyl)piperidin-1-yl)-N-hydroxypyrimidine-5-carboxamide] | 100 to 1000 nM | > 10000 nM | < 100 nM | 170 to 172 °C |
| CC(=O)OCCN(Cc1cc2nc(-c3cccc4[nH]ncc34)nc(N3CCOCC3)c2s1)c1ncc(C(=O)NO)cn1 [Compound 87] | < 100 nM | 1000 to 10000 nM | < 100 nM |  |
| Cn1cc(-c2nc(N3CCOCC3)c3sc(CN(CCO)c4ncc(C(=O)NO)cn4)cc3n2)cn1 [Compound 313] | 100 to 1000 nM | > 10000 nM | < 100 nM |  |

Results, then the molecule that gave them:

| IC50 [1] | IC50 [2] | IC50 [3] | melting point | SMILES |
| --- | --- | --- | --- | --- |
| 1000 to 10000 nM | > 10000 nM | < 100 nM |  | CC(=O)c1ccc(F)c(-c2nc(N3CCOCC3)c3sc(CN(C)c4ncc(C(=O)NO)cn4)cc3n2)c1 [Compound 301] |
| > 10000 nM | > 10000 nM |  | 178 to 180 °C | CC(=O)NCc1ccc(-c2nc(N3CCOCC3)c3sc(CN(C)c4ncc(C(=O)NO)cn4)cc3n2)cc1 [Compound 136, 2-(((2-(4-(acetamidomethyl)phenyl)-4-morpholinothieno[3,2-d]pyrimidin-6-yl)methyl)(methyl)amino)-N-hydroxypyrimidine-5-carboxamide] |
| < 100 nM | 1000 to 10000 nM | < 100 nM | 153 to 156 °C | CCc1ncc(-c2nc(N3CCOCC3)c3sc(CN(C)c4ncc(C(=O)NO)cn4)cc3n2)cn1 [Compound 121, 2-(((2-(2-ethylpyrimidin-5-yl)-4-morpholinothieno[3,2-d]pyrimidin-6-yl)methyl)(methyl)amino)-N-hydroxypyrimidine-5-carboxamide] |
| 100 to 1000 nM | 100 to 1000 nM | < 100 nM | 169 to 173 °C | C[C@@H](O)c1cccc(-c2nc(N3CCOCC3)c3sc(CN(C)c4ncc(C(=O)NO)cn4)cc3n2)c1 [Compound 297, (R)—N-Hydroxy-2-(((2-(3-(1-hydroxyethyl)phenyl)-4-morpholinothieno[3,2-d]pyrimidin-6-yl)methyl)(methyl)amino)pyrimidine-5-carboxamide] |
| 1000 to 10000 nM | 100 to 1000 nM | < 100 nM |  | CN(Cc1cc2nc(-c3c[nH]c4ccccc34)nc(N3CCOCC3)c2s1)c1ncc(C(=O)NO)cn1 [Compound 184] |
| > 10000 nM | > 10000 nM | < 100 nM |  | CN(Cc1cc2nc(-c3cccc4c3CC(=O)N4)nc(N3CCOCC3)c2s1)c1ncc(C(=O)NO)cn1 [Compound 178] |
| 1000 to 10000 nM | > 10000 nM | < 100 nM |  | CN(Cc1cc2nc(-c3cccc4c3CNC4=O)nc(N3CCOCC3)c2s1)c1ncc(C(=O)NO)cn1 [Compound 181] |
| < 100 nM | 100 to 1000 nM | < 100 nM | > 300 °C | CN(Cc1cc2nc(-c3ccc4[nH]c(C(F)(F)F)nc4c3)nc(N3CCOCC3)c2s1)c1ncc(C(=O)NO)cn1 [Compound 318] |
| 100 to 1000 nM | 100 to 1000 nM | < 100 nM |  | CN(Cc1cc2nc(-c3cccc(C(N)=O)c3)nc(N3CCOCC3)c2s1)c1ncc(C(=O)NO)cn1 [Compound 142, 2-(((2-(3-carbamoylphenyl)-4-morpholinothieno[3,2-d]pyrimidin-6-yl)methyl)(methyl)amino)-N-hydroxypyrimidine-5-carboxamide] |
| 100 to 1000 nM | > 10000 nM | < 100 nM |  | Cc1ncc(-c2nc(N3CCOCC3)c3sc(CN(C)c4ncc(C(=O)NO)cn4)cc3n2)s1 [Compound 311] |
| 100 to 1000 nM | > 10000 nM | < 100 nM | 164 to 169 °C | CN(Cc1cc2nc(-c3cnn(C)c3)nc(N3CCOCC3)c2s1)c1ncc(C(=O)NO)cn1 [Compound 246, N-Hydroxy-2-(methyl((2-(1-methyl-1H-pyrazol-4-yl)-4-morpholinothieno[3,2-d]pyrimidin-6-yl)methyl)amino)pyrimidine-5-carboxamide] |
| < 100 nM | > 10000 nM | < 100 nM | 143 to 145 °C | CN(Cc1cc2nc(-c3ccc(OCCO)nc3)nc(N3CCOCC3)c2s1)c1ncc(C(=O)NO)cn1 [Compound 256, N-Hydroxy-2-(((2-(6-(2-hydroxyethoxy)pyridin-3-yl)-4-morpholinothieno[3,2-d]pyrimidin-6-yl)methyl)(methyl)amino)pyrimidine-5-carboxamide] |
| < 100 nM | 1000 to 10000 nM | < 100 nM | 200 to 206 °C | CN(C)c1ncc(-c2nc(N3CCOCC3)c3sc(CN(C)c4ncc(C(=O)NO)cn4)cc3n2)cn1 [Compound 117, 2-(((2-(2-(dimethylamino)pyrimidin-5-yl)-4-morpholinothieno[3,2-d]pyrimidin-6-yl)methyl)(methyl)amino)-N-hydroxypyrimidine-5-carboxamide] |
| < 100 nM | > 10000 nM | < 100 nM |  | CN(Cc1cc2nc(-c3ccc([N+](=O)[O-])c(O)c3)nc(N3CCOCC3)c2s1)c1ncc(C(=O)NO)cn1 [Compound 293, N-Hydroxy-2-(((2-(3-hydroxy-4-nitrophenyl)-4-morpholinothieno[3,2-d]pyrimidin-6-yl)methyl)(methyl)amino)pyrimidine-5-carboxamide] |
| > 10000 nM | > 10000 nM | < 100 nM |  | CN(Cc1cc2nc(-c3ccc4c(c3)NC(=O)CO4)nc(N3CCOCC3)c2s1)c1ncc(C(=O)NO)cn1 [Compound 183] |
| 100 to 1000 nM | > 10000 nM | < 100 nM |  | CN(Cc1cc2nc(-c3cccc4[nH]c(=O)[nH]c34)nc(N3CCOCC3)c2s1)c1ncc(C(=O)NO)cn1 [Compound 314] |
